Test results from patent US4206117A, “Pyridinyl aminoalkyl ethers” (BASF Aktiengesellschaft, priority 1977, dated 1980).

Key:
[1] = Therapeutic range, quotient of LD 50 (mice) and ED 50 (rats); assay type: in vivo; details: in vivo; LD 50 mice i.p. / ED 50 rats oral
Description: (§1) To determine the anti-arrhythmic activity, the drugs were administered orally to rats (Sprague Dawley, weight from 180 to 240 g) 45 minutes before the start of the narcosis.
(§2) The animals were narcotized with thiobutabartial (100 mg/kg administered intraperitoneally). The arrhythmogenic substance used was aconitine, which was administered by intravenous infusion (at a rate of 0.005 mg/kg.min) 60 minutes after administration of the test substance. In the case of untreated animals (N=30), arrhythmias occurred after an average of 3.7±0.9 minutes, the commencement of which can be delayed by anti-arrhythmic agents, the delay depending on the dosage.
(§3) For a quantitative evaluation of the linear relation between log dose (mg/kg) of the test substances and relative prolongation of the duration of aconitine infusion (Δ%), the dose which extended the duration of infusion by 50% (ED 50) was determined. The prior art anti-arrhythmic agent quinidine served as a comparative substance.
(§4) The acute toxicity was determined on groups of 10 or 20 female Swiss mice, weighing 20-26 g, the compounds being administered intraperitoneally.

[2] = system: Aconitineinduced arrhythmia, rats; experiment: animal or person; assay type: in vivo, rats (Sprague Dawley); details: for ED50 / Emax: Rattus norvegicus, po; for ED50: 1 h, read-out: Effective dose ED 50 (extends the duration of aconitine infusion by 50%); for Emax: read-out: R.M.A. (relative maximum activity); for Maximum action: Prolongation of the duration of aconitine infusion, Δ% / R.M.A. (relative maximum activity): at the highest nontoxic dose; for Maximum action: Prolongation of the duration of aconitine infusion, Δ% / Maximum action: Dose (highest nontoxic dose): oral, rats; for R.A. (relative activity) / R.M.A. (relative maximum activity): quinidine = 1.00
Description: as §1
The animals were narcotized with thiobutabartial (100 mg/kg administered intraperitoneally). The arrhythmogenic substance used was aconitine, which was administered by intravenous infusion (at a rate of 0.005 mg/kg.min) 60 minutes after administration of the test substance.
For a quantitative evaluation of the linear relation between log dose (mg/kg) of the test substances and relative prolongation of the duration of aconitine infusion (Δ%), the dose which extended the duration of infusion by 50% (ED 50) was determined.

[3] = Acute toxicity, intraperitoneal administration; details: mouse, in vivo, ip, female Swiss mice, within 24 hours, read-out: Acute toxicity LD 50
Description: as §4

[4] = system: Aconitineinduced arrhythmia, rats; experiment: Therapeutic range, quotient of LD 50 (mice) and ED 50 (rats); assay type: in vivo; details: relative to quinidine
Description: as §1, §2, §3, §4

Row | Compound | selectivity ratio [1] | ED50 [2] [mg/kg] | Emax [2] [%] | Maximum action: Prolongation of the duration of aconitine infusion, Δ% [2] [%] | Maximum action: Dose (highest nontoxic dose) [2] [mg/kg] | R.A. (relative activity) [2] | effect achieved with the maximum dose, times as great as that of quinidine ([2]; relative to quinidine) [times] | LD50 at 24 h [3] [mg/kg] | R.M.A. (relative maximum activity) [2] | therapeutic range compared with that of quinidine (in words) [4] | therapeutic range, times as great as that of quinidine [4] [times] | anti-arrhythmic action, times more powerful than that of quinidine ([2]; relative to quinidine) [times]
1 | Cc1nc(Cc2ccccc2)c2c(c1OCCCN1CCNCC1)COC2 [Example 43] | ~5.16 | 28.5 | 116 | 154 | 46.4 | 1.48 | 1.2 | ~147 |  |  |  | 
2 | Cc1nc(Cc2ccccc2)c2c(c1OCCCCNC(C)(C)C)COC2 [Example 61] |  |  |  | 298 | 46.4 | 4.60 |  |  | 2.24 |  |  | 
3 | Cc1nc(Cc2ccccc2)c2c(c1OCCCCNCCC(C)(C)O)COC2 [Example 68] | ~4.31 | 15.8 | 181 | 241 | 100 | 2.70 |  | ~68.1 |  | as great as |  | 
4 | C=C[C@H]1C[N@@]2CC[C@H]1C[C@@H]2[C@@H](O)c1ccnc2ccc(OC)cc12 [Quinidine, quinidine, reference compound] |  |  |  | 133 |  |  |  |  |  |  |  | 
5 | Cc1nc(Cc2ccccc2)c2c(c1OCCCCCNC(C)C)COC2 [Example 52] | 6.5 | 16 | 169 | 225 | 215 | 2.64 |  | 104 |  |  |  | 
6 | CCCN(CCC)CCCOc1c(C)nc(Cc2ccccc2)c2c1COC2 [Example 36] | 8.57 | 21 | 165 | 219 | 100 | 2.01 |  | 180 |  |  |  | 
7 | Cc1nc(Cc2ccccc2)c2c(c1OCCCNC(C)C)COC2 [Example 34, 4-benzyl-6-methyl-1,3-dihydro-furo[3,4-c]pyridin-7-yl 3-isopropylaminopropyl ether] |  |  |  | 457 | 215 | 1.46 | 3.4 |  | 3.44 |  |  | 
8 | Cc1nc(Cc2ccccc2)c2c(c1OCCCCN(C(C)C)C(C)C)COC2 [Example 64] | 7.36 | 21.2 | 238 | 317 | 100 | 2.01 |  | 156 |  |  |  | 
9 | Cc1nc(Cc2ccccc2)c2c(c1OCCC(C)CCNC(C)C)COC2 (stereo not drawn) [Example 55] |  |  |  | 333 | 100 | 3.47 |  |  | 2.50 |  |  | 
10 | CCNCCCCOc1c(C)nc(Cc2ccccc2)c2c1COC2 [Example 58] | 6.06 | 18.8 | 140 | 186 | 100 | 2.27 |  | 114 |  |  |  | 
11 | Cc1nc(Cc2ccccc2)c2c(c1OCCN(C)C)COC2.Cl.Cl [Example 1, 4-benzyl-6-methyl-1,3-dihydro-furo[3,4-c]pyridin-7-yl β-dimethylaminoethyl ether bis-hydrochloride] | ~4.74 | 31 | 138 | 184 | 68.1 | 1.36 |  | ~147 |  |  |  | 
12 | Cc1nc(Cc2ccccc2)c2c(c1OCC(O)CNC(C)C)COC2.Cl (stereo not drawn) [Example 69, 4-benzyl-6-methyl-1,3-dihydrofuro[3,4-c]pyridin-7-yl 2-hydroxy-3-isopropylaminopropyl ether hydrochloride] | 4.65 | 23 | 164 | 218 | 464 | 1.84 |  | 107 |  |  |  | 
13 | CCN(CC)CCC(C)CCOc1c(C)nc(Cc2ccccc2)c2c1COC2 (stereo not drawn) [Example 57] |  |  |  | 261 | 100 | 3.74 |  |  | 1.96 |  |  | 
14 | COC(=O)c1c(Cc2ccccc2)nc(C)c(OCCCN(C)C)c1C(=O)OC [Example 18] | 17.3 | 9.82 | 222 | 295 | 215 | 4.35 |  | 170 |  |  |  | 
15 | CCc1nc(Cc2ccccc2)c2c(c1OCCCN(C)C)COC2 [Example 29] | 5.75 | 18.1 | 204 | 271 | 215 | 2.34 |  | 104 |  |  |  | 
16 | Cc1nc(Cc2ccccc2)c2c(c1OCCCCNC(C)C)COC2 [Example 47] |  |  |  | 358 | 100 | 7.47 |  |  | 2.69 |  | 4.1 | 7.5
17 | CCOC(=O)c1c(Cc2ccccc2)nc(C)c(OCCCN(C)C)c1C(=O)OCC [Example 25] | 8.62 | 15.9 | 147 | 195 | 100 | 2.67 |  | 137 |  |  |  | 
18 | CCC(C)NCCCCOc1c(C)nc(Cc2ccccc2)c2c1COC2 (stereo not drawn) [Example 60] | 4.79 | 21.1 | 185 | 246 | 100 | 2.00 |  | 101 |  |  |  | 
19 | CN(C)CCCOc1c(Cc2ccccc2)nc(Cc2ccccc2)c2c1COC2 [Example 32] |  |  |  | 319 | 215 | 2.84 |  |  | 2.40 |  |  | 
